Assays:
complement factor D = molecular target: T1, complement factor D (Homo sapiens, UniProt P00746); test: Complement factor D inhibitory activity (C3b method) in vitro screening; product Bb detected by ELISA; format: biochemical; details: factor D + factor B + factor C3b, 37° C., Bb by MicroVue Bb Plus ELISA
T1 construct: purchased Complement tech
From the text: 1. Complement Factor D Inhibitory Activity (C3b Method) In Vitro Screening Experiment
V-bottom plate (AXYGEN), DMSO (Sigma), MicroVue Bb Plus ELISA kit (Quidel), complement factor C3b (abbreviated as factor C3b, Complement tech), complement factor B (abbreviated as factor B, Complement tech), complement factor D (abbreviated as factor D, Complement tech), EDTA (MACKLIN), GVB^o (Complement tech), EGTA (Aladdin), MgCl2 (Aladdin), NaOH (Sinopharm), microplate reader (Molecular Devices, SpectraMax i3x), microplate thermostatic shaker (Thermo, MB100-2A), pipette (Gilson)
0.1 M Mg-EGTA: 3.8 g of EGTA, 0.9521 g of MgCl2, and 0.7 g of NaOH were weighed, and the pH was adjusted to 7.5 with NaOH. Distilled water was added to make up to 100 mL, and the mixture was filtered with a […] sterile needle filter, stored in portions at 4° C.
Buffer: 0.1 M Mg-EGTA solution was diluted 10-fold to 10 mM with GVB^o buffer; • factor B working solution: 1 mg/mL factor B solution (10.75 μM) was diluted 6.7-fold to 1.6 μM with buffer; • factor C3b working solution: 1 mg/mL factor C3b solution (5.68 μM) was diluted 5-fold to […] with buffer; • factor D working solution: 0.1 mg/mL factor D solution (4.17 μM) was diluted 1303-fold to 3.2 nM with buffer.
Note: a. The above dilution multiples are for reference only and are adjusted according to the true concentration labeled on the reagent; • b. factor B: 93 KDa, factor D: 24 KDa, factor C3b: 176 KDa.
Stop solution: An appropriate amount of EDTA powder was weighed, dissolved in a certain amount of GVB^o buffer, and the pH was adjusted to 7.5 with NaOH. The mixture was stirred until clear and prepared into a 10 mM solution.
Compound stock solution: 40 mM compound solution was diluted with DMSO into 1 mM stock solution, and the 1 mM stock solution was diluted 3-fold with DMSO at 8 points to prepare compound stock solutions of various concentrations.
Compound working solution: diluted 250-fold with buffer to obtain compound solutions of various concentrations.
In the V-bottom plate, the experimental group was added with 10 μL of factor D solution and 10 μL of compound solution; the positive control group was added with 10 μL of factor D solution and buffer containing 0.4% DMSO; the blank control group was added with […] containing 0.2% DMSO; incubated at 37° C. for 15 min; the factor B working solution and the factor C3b working solution were mixed homogeneously at a ratio of 1:1; 20 µL of the mixture was added to each well and incubated at 37° C. for 30 min; the reaction was stopped by adding 40 μL of stop solution; the production of product Bb was detected by MicroVue Bb Plus ELISA kit.
1.4.1 The required wells of the ELISA plate were taken out and allowed to return to room temperature, and the remaining ones were repackaged and stored at 4° C.;
1.4.2 the wells were washed twice with 300 μL of 1× wash buffer, and incubated for 1 min at 25° C. for the first wash;
1.4.3 samples were diluted 8-fold with complement specimen diluent, and 100 μL of sample was added to each well and incubated at 25° C. for 30 min;
1.4.4 the liquid in the wells was discarded, and the wells were washed 5 times with 300 μL of 1× wash buffer, and incubated at room temperature for 1 min for the first wash;
1.4.5 50 μL of Bb Plus Conjugate was added to each well and incubated at 25° C. for 30 min;
1.4.6 the liquid in the wells was discarded, and the wells were washed 5 times with 300 μL of 1× wash buffer, and incubated at room temperature for 1 min for the first wash;
1.4.7 100 μL of […] (Substrate Solution) was added to each well and incubated at 25° C. for 15 min;
1.4.8 100 μL of stop solution was added to each well, and the absorbance was detected at 450 nm within 30 min.
1.5.1 Inhibition rate of each drug concentration:
The PC group represents 0% inhibition rate, and the NC group represents 100% inhibition rate. […]

[1] = tested on: hemolysis of rabbit erythrocytes; test: Rabbit erythrocyte hemolysis assay to evaluate inhibitory activity on the bypass pathway; format: cell-based; details: Oryctolagus cuniculus, 0.5 h, 48% NHP or 26.4% NHS, 37° C. 30 min, absorbance 415 nm
From the text: 2. Rabbit Erythrocyte Hemolysis Assay to Evaluate the Inhibitory Activity of Compounds on the Bypass Pathway
Normal Human Serum, NHS (collected from healthy people), Normal Human Plasma, NHP (Shanghai Yuduo), 96-well ELISA plate (Jet Biofil), Japanese big-eared white rabbit (Wuhan WQJX), Alsever's solution (Procell), centrifuge (Thermo, PICO17), thermostatic shaker (Shanghai Fuma), destaining shaker (Beijing Liuyi), cell counter (Invitrogen, Counter Countess II) (GVB^o, EGTA, MgCl2, NaOH, microplate reader, microplate thermostatic shaker, and pipette are equivalent to those in the experiment 1).
48% NHP: 100% NHP was diluted to 48% with buffer;
26.4% NPS: 100% NHS was diluted to 26.4% with buffer;
rabbit erythrocyte suspension: blood was taken from rabbit ear marginal vein, anticoagulated with Alsever's solution at a ratio of 1:1, stored in portions at 4° C., and could be stored for 4 weeks. Before use, the suspension was centrifuged at 500 g for 5 min to discard the Alsever's solution, washed three times with an equal volume of buffer and centrifuged at 500 g for 5 min, and finally the density was adjusted to 6×10^8 cells/mL with buffer.
In the 96-well ELISA plate, the experimental group was added with 50 μL of 48% NHP or 26.4% NHS and 50 μL of compound solution; the positive control group was added with 50 μL of 48% NHP or 26.4% NHS and 50 μL of buffer containing 0.2% DMSO; the blank control group was added with 50 μL of 48% inactivated NHP or 26.4% inactivated NHS and 0.2% DMSO buffer; the H2O group was added with 100 μL of double-distilled water; incubated at 37° C. for 15 min; 20 μL of rabbit erythrocyte suspension was added to each well and incubated on a shaker at 37° C. for 30 min; centrifuged at 2000 g (3380 rpm) for 5 min, and […] of supernatant was transferred to a new 96-well ELISA plate, and the absorbance was detected at 415 nm.
The PC group represents 100% hemolysis, and the NC group represents 0% hemolysis.
IC50: half-maximal inhibitory concentration. Data were collected to calculate the log value of hemolysis percentage versus compound concentration, and IC50 values were calculated using GraphPad Prism software.

T1 sequence (P00746 26-253): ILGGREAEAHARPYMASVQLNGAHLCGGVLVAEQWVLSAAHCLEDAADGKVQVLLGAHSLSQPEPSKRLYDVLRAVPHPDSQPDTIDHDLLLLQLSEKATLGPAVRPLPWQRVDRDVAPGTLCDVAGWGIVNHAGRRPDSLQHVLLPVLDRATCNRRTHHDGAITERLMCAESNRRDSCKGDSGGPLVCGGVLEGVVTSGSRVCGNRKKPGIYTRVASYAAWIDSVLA

Row | SMILES | IC50 (complement factor D) | IC50 [1]
1 | NCc1cccc(-c2cc(COc3ccc(F)cc3CC(=O)O)cc(N3CCC4(CC3)COC4)c2)c1F [Compound 025, 2-(2-((3′-(aminomethyl)-2′-fluoro-5-(2-oxa-7-azaspiro[3.5]nonan-7-yl)-[1,1′-biphenyl]-3-yl)methoxy)-5-fluorophenyl)acetic acid] | 7 nM | 12 nM
2 | NCc1cccc(-c2cc(COc3cc(F)ccc3CC(=O)O)cc(N3CCC4(CC3)CC4)c2)c1F [Compound 021, 2-(2-((3′-(aminomethyl)-2′-fluoro-5-(6-azaspiro[2.5]octan-6-yl)-[1,1′-biphenyl]-3-yl)methoxy)-4-fluorophenyl)acetic acid] | 11 nM | 65 nM
3 | NCc1cccc(-c2cc(COc3ccccc3CC(=O)O)cc(N3CCC4(CCNCC4)CC3)c2)c1 [Compound 033, 2-(2-((3′-(aminomethyl)-5-(3,9-diazaspiro[5.5]undecan-3-yl)-[1,1′-biphenyl]-3-yl)methoxy)phenyl)acetic acid] | 2 nM | 3 nM
4 | CN1CC2(CCN(c3cc(COc4ccccc4CC(=O)O)cc(-c4cccc(CN)c4)c3)CC2)C1 [Compound 032, 2-(2-((3′-(aminomethyl)-5-(2-methyl-2,7-diazaspiro[3.5]nonan-7-yl)-[1,1′-biphenyl]-3-yl)methoxy)phenyl)acetic acid] | 10 nM | 8 nM
5 | NCc1cccc(-c2cc(COc3ccccc3CC(=O)O)cc(N3CCC4(CCOCC4)CC3)c2)c1 [Compound 029, 2-(2-((3′-(aminomethyl)-5-(3-oxa-9-azaspiro[5.5]undecan-9-yl)-[1,1′-biphenyl]-3-yl)methoxy)phenyl)acetic acid] | 6 nM | 10 nM
6 | NCc1cccc(-c2cc(COc3ccccc3CC(=O)O)cc(N3CCC4(CCCC4)C3)c2)c1 [Compound 034] | 1 nM | 11 nM
7 | NCc1cccc(-c2cc(COc3ccccc3CC(=O)O)cc(N3CC4(CCCC4)C3)c2)c1 [Compound 017, 2-(2-((3′-(aminomethyl)-5-(2-azaspiro[3.4]octan-2-yl)-[1,1′-biphenyl]-3-yl)methoxy)phenyl)acetic acid] | 6 nM | 65 nM
8 | NCc1cccc(-c2cc(COc3ccccc3CC(=O)O)cc(N3CCC4(CC3)COC4)c2)c1F [Compound 024, 2-(2-((3′-(aminomethyl)-2′-fluoro-5-(2-oxa-7-azaspiro[3.5]nonan-7-yl)-[1,1′-biphenyl]-3-yl)methoxy)phenyl)acetic acid] | 4 nM | 27 nM
9 | NCc1cccc(-c2cc(COc3ccccc3CC(=O)O)cc(N3CCC4(CCC4)C3)c2)c1 [Compound 003, 2-(2-((3′-(aminomethyl)-5-(6-azaspiro[3.4]octan-6-yl)-[1,1′-biphenyl]-3-yl)methoxy)phenyl)acetic acid] | 3 nM | 43 nM
10 | NCc1cccc(-c2cc(COc3ccccc3CC(=O)O)cc(N3CCC4(CC3)COC4)c2)c1 [Compound 011, 2-(2-((3′-(aminomethyl)-5-(2-oxa-7-azaspiro[3.5]nonan-7-yl)-[1,1′-biphenyl]-3-yl)methoxy)phenyl)acetic acid] | 18 nM | 13 nM
11 | NCc1cccc(-c2cc(COc3ccccc3CC(=O)O)cc(N3CCOC4(CC4)C3)c2)c1 [Compound 016, 2-(2-((3′-(aminomethyl)-5-(4-oxa-7-azaspiro[2.5]octan-7-yl)-[1,1′-biphenyl]-3-yl)methoxy)phenyl)acetic acid] | 26 nM | 19 nM
12 | NCc1cccc(-c2cc(COc3ccccc3CC(=O)O)cc(N3CCC4(CCOC4)CC3)c2)c1 [Compound 014, 2-(2-((3′-(aminomethyl)-5-(2-oxa-8-azaspiro[4.5]decan-8-yl)-[1,1′-biphenyl]-3-yl)methoxy)phenyl)acetic acid] | 14 nM | 10 nM
13 | NCc1cccc(-c2cc(COc3ccccc3CC(=O)O)cc(N3CCCC4(CC4)C3)c2)c1 [Compound 004, 2-(2-((3′-(aminomethyl)-5-(5-azaspiro[2.5]octan-5-yl)-[1,1′-biphenyl]-3-yl)methoxy)phenyl)acetic acid] | 19 nM | 36 nM
14 | NCc1cccc(-c2cc(COc3ccccc3CC(=O)O)cc(N3CCC4(CCCOC4)CC3)c2)c1 [Compound 030, 2-(2-((3′-(aminomethyl)-5-(2-oxa-9-azaspiro[5.5]undecan-9-yl)-[1,1′-biphenyl]-3-yl)methoxy)phenyl)acetic acid] | 4 nM | 22 nM
15 | NCc1cccc(-c2cc(COc3ccccc3CC(=O)O)cc(N3CC4(CCOC4)C3)c2)c1 [Compound 031, 2-(2-((3′-(aminomethyl)-5-(6-oxa-2-azaspiro[3.4]octan-2-yl)-[1,1′-biphenyl]-3-yl)methoxy)phenyl)acetic acid] | 3 nM | 6 nM
16 | NCc1cccc(-c2cc(COc3ccccc3CC(=O)O)cc(N3CC4CCC(C4)C3)c2)c1 [Compound 006, 2-(2-((3′-(aminomethyl)-5-(3-azabicyclo[3.2.1]octan-3-yl)-′[1,1′-biphenyl]-3-yl)methoxy)phenyl)acetic acid] | 4 nM | 54 nM
17 | NCc1cccc(-c2cc(COc3ccccc3CC(=O)O)cc(N3CCC4(CCO4)CC3)c2)c1 [Compound 012, 2-(2-((3′-(aminomethyl)-5-(1-oxa-7-azaspiro[3.5]nonan-7-yl)-[1,1′-biphenyl]-3-yl)methoxy)phenyl)acetic acid] | 6 nM | 4 nM
